Source: paper PMC8877291, “Design and Synthesis of Arylpiperazine Serotonergic/Dopaminergic Ligands with Neuroprotective Properties” (Molecules, 2022)

Columns and labels:
dopamine D3 receptor = dopamine D3 receptor (Homo sapiens, UniProt P35462); assay: Dopamine D3 receptor competition binding ([3H]spiperone)
Procedure: Competition binding experiments at dopamine D2s and D3 receptor were performed to determine the affinity of the compounds. […] Membrane preparations of transfected CHO-K1 cells stably expressing the human D2s or D3 receptor were performed according to Bautista-Aguilera et al. [26]. The competition binding experiments were conducted as previously reported [26, 27]. Briefly, membrane fractions (D2sR: 25 µg/200 µL; D3R: 20 µg/200 µL) were incubated with [^3H]spiperone (0.2 nM) and test compound for 120 min at room temperature. […] Non-specific binding was determined in the presence of 10 µM haloperidol. Haloperidol was also used as reference compound. Separation of the bound ligand from the free ligand was conducted by filtration through GF/B filters using deionized water.

[1] = Stability assay in rat liver microsomes; type: in vitro ADME; settings: NADPH-regenerating system; for remaining at 30 min, 10 μM: pH 7.4, rat liver microsomes, 30 min incubation, read-out: Metabolic Stability (percentage of recovery of the parent compound); for in vitro metabolic stability (in words): rat microsomes, 30 min
Procedure: To evaluate the susceptibility to first-pass oxidative metabolism, the leading cause of metabolic degradation in vivo [17] the target compounds were incubated with rat liver microsomes. The turnover of the parent compound was assessed as the percentage of the parent compound recovered after 30 min of incubation with microsomes in the presence of an NADPH-regenerating system.
Test compounds were pre-incubated at 37 °C with rat liver microsomes (Tebu-Bio, Milan, Italy) (1.0 mg/mL microsomal protein) at 10 μM final concentration in 100 mM potassium phosphate buffer (pH 7.4) for 10 min. Metabolic reactions were initiated by the addition of the NADPH regenerating system (containing 10 mM NADP, 50 mM glucose-6-phosphate, and 10 unit/mL glucose-6-phosphate dehydrogenase, final glucose-6-phosphate dehydrogenase concentration, 1 unit/mL). After 30 min incubation, the reaction mixture was quenched by adding an equal volume of cold acetonitrile containing the internal standard. A test compound incubated with microsomes without NADPH regenerating system was included. Quenched samples were centrifuged at 4500 rpm for 15 min and the supernatants were injected for quantification analysis. Samples (100 μL) were analyzed by using an Agilent 1260 Infinity Binary LC System equipped with a diode array detector (Open Lab software was used to analyze the chromatographic data) and a Phenomenex Gemini C-18 column (250 mm × 4.6 mm, 5 μm particle size). The samples were eluted using CH3CN/20 mM ammonium formate pH 5.5 (7:3, v/v) as eluent (volumetric flow rate =1 mL/min). Concentrations were quantified by measuring the area under the peak.
The percentage of the parent compound remaining after a 30-min incubation was calculated according to the equation:% of parent compound remaining after 30 min = Cparent/Ccontrol × 100(1) where Cparent is ligand concentration after incubation with microsome fraction and NADPH regenerating system and Ccontrol is ligand concentration after incubation with microsome fraction only.

[2] = target: T1, serotonin 5-HT7 receptor (5-HT7A) (Homo sapiens, UniProt P34969); assay: 5-HT7 receptor radioligand competition binding ([3H]-SB269970); settings: human cloned 5-HT7A receptor, HEK293 membranes, 2 nM [3H]-SB269970; ± S.E.M., n = 3 in duplicate; read-out: Affinity Ki 5-HT7
T1 construct: expressed in transfected cells
Procedure: (§1) As a first step, competition radioligand binding assays were carried out for all the compounds at the single concentration of 10 µM, on membrane preparations from stable cell lines heterologously expressing the human cloned 5-HT1A, 5-HT2A, or 5-HT7 receptors. […] For the affinity determination at dopamine receptor subtypes, membrane fractions of human dopamine D2s, D3, D1, and D5 receptor-expressing cells were used. They were co-incubated with [^3H]spiperone (for D2s and D3 receptor) or [^3H]SCH23390 (for D1 and D5 receptor) and appropriate concentrations of test compound for 120 min. Bound radioligand was separated from the free ligand using filtration. Radioactivity was measured by liquid scintillation counting.
The affinity of the compounds for serotonin 5-HT7 receptor was evaluated in membrane preparations from HEK293 cells stably expressing the human cloned 5-HT7A receptor, following previously described procedures with minor modifications. Competition binding experiments were performed using 2 nM [^3H]-SB269970 (34.5 Ci/mmol, 0.25 mCi/mL, Perkin Elmer NET1198U250UC) as radioligand. […] Methiothepine was included in the assays as reference compound. Assays were carried out in duplicate in 96-well assay plates, in assay buffer (50 mM Tris-HCl, 4 mM MgCl2, 1 mM ascorbic acid, 0.1 mM pargyline, pH = 7.4). Assay mixtures were incubated at 37 °C for 60 min, followed by filtration through GF/C glass filter plates, and washing with ice-cold assay buffer. Affinity (equilibrium dissociation constant, Ki) of the compounds was calculated from competition binding curves as indicated above.

[3] = target: T2, serotonin 5-HT2A receptor (Homo sapiens, UniProt P28223); assay: 5-HT2A receptor radioligand competition binding ([3H]-ketanserin); settings: human cloned receptor, CHO-K1 membranes, 1 nM [3H]-ketanserin; ± S.E.M., n = 3 in duplicate; read-out: Affinity Ki 5-HT2A
T2 construct: expressed in transfected cells

dopamine D5 receptor = target: T3, dopamine D5 receptor (Homo sapiens, UniProt P21918); assay: Dopamine D5 receptor competition binding ([3H]-SCH23390); settings: HEK-293 membranes, [3H]-SCH23390 0.3 nM, mean (CI 95%), read-out: Affinity Ki D5
T3 construct: expressed in transfected cells
Procedure: as §1, with “The final compounds were tested for their affinity at serotonin 5-HT1A, 5-HT2A, and 5-HT7 receptors and at dopamine D1, D2, D3, and D5 receptors. As” for “As”
The affinity for dopamine D1 and D5 receptors was evaluated in membrane fractions of HEK-293 cells stably expressing the human dopamine D1 or D5 receptor. HEK-293-D1 cells were cultured in DMEM/F12 (15 mM HEPES, 1.2 g/L NaHCO3) with 10% (v/v) FBS and 1% (v/v) L-glutamine. HEK-293-D5 cells were cultured in DMEM/F12 (with L-glutamine, 1.2 g/L NaHCO3) with 20% (v/v) FBS. Preparation of membrane fractions and radioligand competition assays were performed as previously described. Briefly, membrane fractions were co-incubated with [^3H]-SCH23390 (0.3 nM) and different concentrations of test compound for 120 min at room temperature. Fluphenazine (100 µM) was used to determine non-specific binding and as reference compound.
Data of at least three independent experiments in triplicate were analyzed using GraphPad Prism 8.1 (San Diego, CA, USA). Binding curves were fitted to a non-linear regression model (one-site competition). Ki values were calculated from IC50 values using the Cheng–Prusoff equation. The statistical calculations were performed on –log(Ki).

T3 sequence (P21918 whole entry): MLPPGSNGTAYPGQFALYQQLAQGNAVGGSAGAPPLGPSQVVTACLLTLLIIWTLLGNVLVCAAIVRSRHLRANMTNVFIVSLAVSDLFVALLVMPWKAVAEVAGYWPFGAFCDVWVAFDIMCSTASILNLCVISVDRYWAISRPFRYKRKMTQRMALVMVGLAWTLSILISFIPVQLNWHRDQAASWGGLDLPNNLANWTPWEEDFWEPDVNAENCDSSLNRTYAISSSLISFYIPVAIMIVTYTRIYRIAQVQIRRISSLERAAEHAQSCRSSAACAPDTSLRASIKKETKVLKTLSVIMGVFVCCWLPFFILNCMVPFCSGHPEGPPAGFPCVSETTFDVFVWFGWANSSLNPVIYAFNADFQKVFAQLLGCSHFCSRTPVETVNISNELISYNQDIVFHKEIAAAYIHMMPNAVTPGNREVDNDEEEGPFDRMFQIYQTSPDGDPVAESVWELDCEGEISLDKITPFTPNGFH
T1 sequence (P34969 1-445 isoform P34969-2): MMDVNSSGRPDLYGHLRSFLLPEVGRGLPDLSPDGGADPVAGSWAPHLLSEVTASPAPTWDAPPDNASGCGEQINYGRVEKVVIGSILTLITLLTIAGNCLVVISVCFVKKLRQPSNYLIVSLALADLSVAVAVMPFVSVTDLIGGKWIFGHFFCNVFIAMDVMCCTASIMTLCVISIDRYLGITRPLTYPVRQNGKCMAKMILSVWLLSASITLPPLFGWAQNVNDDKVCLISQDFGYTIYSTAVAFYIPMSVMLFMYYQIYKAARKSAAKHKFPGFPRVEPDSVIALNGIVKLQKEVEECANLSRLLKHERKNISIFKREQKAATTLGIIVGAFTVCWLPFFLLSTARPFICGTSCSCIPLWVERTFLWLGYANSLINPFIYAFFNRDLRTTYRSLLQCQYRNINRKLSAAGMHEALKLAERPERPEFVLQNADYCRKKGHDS
T2 sequence (P28223 whole entry): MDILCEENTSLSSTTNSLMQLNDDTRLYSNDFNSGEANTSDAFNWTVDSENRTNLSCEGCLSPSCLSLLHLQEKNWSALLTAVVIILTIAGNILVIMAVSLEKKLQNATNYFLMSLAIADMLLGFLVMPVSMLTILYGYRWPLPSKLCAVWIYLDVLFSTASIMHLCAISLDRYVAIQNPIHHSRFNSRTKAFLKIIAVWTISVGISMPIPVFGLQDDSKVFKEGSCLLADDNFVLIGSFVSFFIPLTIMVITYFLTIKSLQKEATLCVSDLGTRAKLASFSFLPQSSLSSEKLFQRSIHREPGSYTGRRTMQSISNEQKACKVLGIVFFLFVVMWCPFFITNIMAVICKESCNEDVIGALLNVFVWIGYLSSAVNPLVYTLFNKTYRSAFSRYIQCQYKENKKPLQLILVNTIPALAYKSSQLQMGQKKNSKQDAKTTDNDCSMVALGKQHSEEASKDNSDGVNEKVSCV
Chain of dopamine D3 receptor (P35462 whole entry): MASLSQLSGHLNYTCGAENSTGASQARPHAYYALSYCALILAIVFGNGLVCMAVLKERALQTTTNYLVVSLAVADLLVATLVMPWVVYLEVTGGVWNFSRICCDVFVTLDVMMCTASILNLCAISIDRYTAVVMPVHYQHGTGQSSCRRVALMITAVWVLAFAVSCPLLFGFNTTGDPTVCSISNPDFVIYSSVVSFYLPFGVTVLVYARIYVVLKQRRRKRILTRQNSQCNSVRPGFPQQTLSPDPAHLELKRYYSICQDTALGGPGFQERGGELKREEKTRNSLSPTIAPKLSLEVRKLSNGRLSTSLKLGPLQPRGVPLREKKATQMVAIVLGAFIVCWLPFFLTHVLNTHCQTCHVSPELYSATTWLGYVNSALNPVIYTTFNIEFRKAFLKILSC

| SMILES | Ki (dopamine D3 receptor) | remaining at 30 min, 10 μM [1] | Ki [2] | Ki [3] | Ki (dopamine D5 receptor) | in vitro metabolic stability (in words) [1] |
| --- | --- | --- | --- | --- | --- | --- |
| CC1Oc2ccc(OCCCN3CCN(c4ncccc4-c4ccncc4)CC3)cc2NC1=O (centres unmarked) [Compound 8a, 6-(3-(4-([3,4’-Bipyridin]-2-yl)piperazin-1-yl)propoxy)-2-methyl-2H-benzo[b][1,4]oxazin-3(4H)-one] | 1.22 µM | 4% | 0.0107 ± 0.0007 µM | 0.782 ± 0.119 µM | 7.41 µM | – |
| CC1Oc2ccc(OCCCCN3CCN(c4ncccc4-c4ccncc4)CC3)cc2NC1=O (centres unmarked) [Compound 8b, 6-(4-(4-([3,4’-Bipyridin]-2-yl)piperazin-1-yl)butoxy)-2-methyl-2H-benzo[b][1,4]oxazin-3(4H)-one] | 0.691 µM | 14% | 0.00938 ± 0.00042 µM | 0.611 ± 0.087 µM | 8.2 µM | – |
| COc1ccc(-c2cc(F)ccc2N2CCN(CCCCn3ncc(=O)n(C)c3=O)CC2)cc1 [Compound 9b, 2-(4-(4-(5-Fluoro-4’-methoxy-[1,1’-biphenyl]-2-yl)piperazin-1-yl)butyl)-4-methyl-1,2,4-triazine-3,5(2H,4H)-dione] | > 10 µM | 45% | 0.045 ± 0.0034 µM | 0.0394 ± 0.0074 µM | 0.222 µM | – |
| Cn1c(=O)cnn(CCCN2CCN(c3ccc(F)cc3-c3ccc(C#N)cc3)CC2)c1=O [Compound 10a, 5’-Fluoro-2’-(4-(3-(4-methyl-3,5-dioxo-4,5-dihydro-1,2,4-triazin-2(3H)-yl)propyl)piperazin-1-yl)-[1,1’-biphenyl]-4-carbonitrile] | > 10 µM | 5% | 0.0457 ± 0.0013 µM | 0.0968 ± 0.011 µM | 0.18 µM | – |
| Cn1c(=O)cnn(CCCCN2CCN(c3ccc(F)cc3-c3ccc(C#N)cc3)CC2)c1=O [Compound 10b, 5’-Fluoro-2’-(4-(4-(4-methyl-3,5-dioxo-4,5-dihydro-1,2,4-triazin-2(3H)-yl)butyl)piperazin-1-yl)-[1,1’-biphenyl]-4-carbonitrile] | > 10 µM | 26% | 0.0365 ± 0.0052 µM | 0.0807 ± 0.0031 µM | 0.101 µM | borderline stability value |
| Cn1c(=O)cnn(CCCN2CCN(c3ncccc3-c3ccncc3)CC2)c1=O [Compound 11a, 2-(3-(4-([3,4’-Bipyridin]-2-yl)piperazin-1-yl)propyl)-4-methyl-1,2,4-triazine-3,5(2H,4H)-dione] | > 10 µM | 4% | 0.0445 ± 0.0022 µM | > 10 µM | > 10 µM | – |
| Cn1c(=O)cnn(CCCCN2CCN(c3ncccc3-c3ccncc3)CC2)c1=O [Compound 11b, 2-(4-(4-([3,4’-Bipyridin]-2-yl)piperazin-1-yl)butyl)-4-methyl-1,2,4-triazine-3,5(2H,4H)-dione] | > 10 µM | 3% | 0.0794 ± 0.009 µM | > 10 µM | > 10 µM | – |
| Cc1cc(=O)oc2cc(OCCCN3CCN(c4ncccc4-c4ccncc4)CC3)ccc12 [Compound 12a, 7-(3-(4-([3,4’-Bipyridin]-2-yl)piperazin-1-yl)propoxy)-4-methyl-2H-chromen-2-one] | 1.07 µM | 19% | 0.0425 ± 0.0062 µM | 0.315 ± 0.044 µM | > 10 µM | borderline stability value |
| Cc1cc(=O)oc2cc(OCCCCN3CCN(c4ncccc4-c4ccncc4)CC3)ccc12 [Compound 12b, 7-(4-(4-([3,4’-Bipyridin]-2-yl)piperazin-1-yl)butoxy)-4-methyl-2H-chromen-2-one] | 0.424 µM | 14% | 0.0522 ± 0.0106 µM | ~1.42 µM | 2.73 µM | – |
